Assay results taken from PMC10350920, “Development of a 2,4-Diaminothiazole Series for the Treatment of Human African Trypanosomiasis Highlights the Importance of Static–Cidal Screening of Analogues” (Journal of Medicinal Chemistry, 2023).
Read-outs that look alike come from different tables or passages of the source.

What was measured:
[1] = system: BSF T. b. brucei “single marker” S427; assay: Drug sensitivity assay with bloodstream-form T. brucei; assay type: cell-based; settings: Trypanosoma brucei; mean values; number of replicates in parentheses
Protocol: (§1) Drug sensitivity assays with BSF T. b. brucei “single marker” S427 and human MRC-5 fibroblasts were conducted as previously described.[43]

[2] = system: TbGSK3; parameters: method as in PMID 23776181; settings: recombinant enzyme, previously established; cited from earlier work
[3] = Mammalian cell counter screen (MRC-5); assay type: cell-based, human; settings: human, MRC-5 fibroblasts; mean values; number of replicates in parentheses
Protocol: as §1

[4] = system: human MRC-5 fibroblasts; assay: Mammalian cell counter screen (MRC-5); assay type: cell-based
Protocol: as §1

[5] = Mouse liver microsomal intrinsic clearance; assay type: in vitro ADME
In short: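 Compound (0.5 μM) incubated with liver microsomes (0.5 mg/mL, 50 mM potassium phosphate pH 7.4) and excess NADPH; samples quenched at 0–30 min and analysed by UPLC–MS/MS. Rate constant from exponential decay of compound/internal standard ratio; CLint scaled with 52.5 mg protein/g liver.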

[6] = system: Tb927.8.6290 overexpressing cell lines (V241F/A258V); assay: Drug sensitivity, line overexpressing Tb927.8.6290 V241F/A258V; assay type: cell-based, T. b. brucei; settings: for EC50: Trypanosoma brucei
Protocol: (§2) Drug sensitivity assays were carried out with BSF T. b. brucei “single marker” S427 or BSF T. b. brucei, Lister 427, MiTat 1.2, clone 221a 2T1 cells,[45] cells grown at 37 °C with 5% CO2 in an HMI-9T medium[46] as previously described.[47] 2T1 cells were initially maintained with 1 μg mL^–1 puromycin and 1 μg mL^–1 phleomycin prior to transfection or 2.5 μg mL^–1 hygromycin and 1 μg mL^–1 phleomycin after transfection. Induction of overexpression was achieved by the addition of 1 μg mL^–1 tetracycline to the culture medium.
(§3) The following primers were used to PCR amplify Tb927.8.6290 from genomic DNA isolated from wild-type and 38-resistant trypanosomes 5′-[…]-3′ (PacI site in bold) and 5′-[…]-3′ (BamHI site in bold). The PCR products (1272 bp) were then cloned into the pRPa plasmid.[53] The accuracy of the plasmid constructs was confirmed by in-house Sanger sequencing and then linearized with AscI prior to transfection. The linearized plasmids were introduced into 2T1 T. b. brucei cells following removal of puromycin from the media and selected with 2.5 μg mL^–1 hygromycin and 1 μg mL^–1 phleomycin. Two independent clones were selected for further studies.

[7] = system: T. brucei wild-type; assay: Drug sensitivity, wild-type parental line; assay type: cell-based, T. b. brucei; settings: Trypanosoma brucei; weighted mean of ≥3 independent experiments
Protocol: as §2
(§4) Compound-resistant cell lines were generated by subculturing a clone of T. brucei in the continuous presence of 38. Starting at sublethal concentrations, drug concentrations in two independent cultures were increased in a stepwise manner, usually 2-fold. When parasites were able to survive and grow in concentrations of drugs equivalent to more than 10 times the established EC50 value, the resulting cell lines were cloned by limiting dilution in the presence of the compound. Two clones (RES I-II) were selected for further biological study. A standard alkaline lysis protocol was used to isolate genomic DNA from compound-resistant bloodstream T. brucei parasites (∼1 × 10^8). Whole genome sequencing was performed using a DNB-seq next-generation sequencing platform (BGI, Hong Kong). Sequencing reads (150 bp) were aligned to the T. brucei TREU927 genome (v39; tritrypDB) using Bowtie2[48] and Samtools[49] software. […] Samtools and BCFtools[52] (mpileup) were used to call SNP and indels compared with the wild-type starter clone, where the overall quality score (QUAL) was >100. Artemis[50] was used to analyze chromosome and gene copy number variation, as well as visualization of SNPs.

[8] = system: Tb927.8.6290 overexpressing cell lines (WT); assay: Drug sensitivity, line overexpressing Tb927.8.6290 WT; assay type: cell-based, T. b. brucei; settings: for EC50: Trypanosoma brucei
Protocol: as §2, §3

[9] = system: T. brucei RES II; assay: Drug sensitivity, compound 38-resistant clone RES II; assay type: cell-based, T. b. brucei
Protocol: as §2, §4

[10] = system: Tb927.8.6290 overexpressing cell lines (A258P); assay: Drug sensitivity, line overexpressing Tb927.8.6290 A258P; assay type: cell-based, T. b. brucei; settings: for EC50: Trypanosoma brucei
Protocol: as §2, §3

[11] = system: T. brucei RES I; assay: Drug sensitivity, compound 38-resistant clone RES I; assay type: cell-based, T. b. brucei
Protocol: as §2, §4

[12] = relative to the parental wild-type, in brackets

| SMILES | EC50 [1] | IC50 [2] | EC50 [3] | selectivity over MRC-5 cell line [4] | SI ([4]; selectivity index (EC50 MRC5/EC50 T. brucei)) | CLint (mouse) [5] | EC50 ([6]; read-out: EC50, V241F/A258V +TET) | EC50 ([6]; read-out: EC50, V241F/A258V –TET) | fold shift, V241F/A258V ([6]; −TET vs +TET EC50, in brackets) | EC50 [7] | EC50 ([8]; read-out: EC50, WT +TET) | EC50 ([8]; read-out: EC50, WT –TET) | fold shift, WT ([8]; −TET vs +TET EC50, in brackets) | EC50 ([9]; Trypanosoma brucei, read-out: EC50, RES II) | fold resistance, RES II [9, 12] | EC50 ([10]; read-out: EC50, A258P +TET) | EC50 ([10]; read-out: EC50, A258P –TET) | fold shift, A258P ([10]; −TET vs +TET EC50, in brackets) | EC50 ([11]; Trypanosoma brucei, read-out: EC50, RES I) | fold resistance, RES I [11, 12] |
| --- | --- | --- | --- | --- | --- | --- | --- | --- | --- | --- | --- | --- | --- | --- | --- | --- | --- | --- | --- | --- |
| CC(C)(C)C(=O)c1sc(NC2CCCCC2)nc1N [Compound 1, 1-(4-Amino-2-(cyclohexylamino)thiazol-5-yl)-2,2-dimethylpropan-1-one] | 470 nM | 12 µM | > 50 µM | ~200 fold | >100 | 2.5 mL·min/g |  |  |  |  |  |  |  |  |  |  |  |  |  |  |
| Nc1nc(Nc2ccccc2)sc1C(=O)c1c(F)cccc1F [Compound 69, reference compound] |  |  |  |  |  |  | 1200 ± 51 nM | 180 ± 11 nM | 6 | 150 ± 3 nM | 410 ± 19 nM | 170 ± 4 nM | 2 | 390 ± 28 nM | 3 | 1400 ± 35 nM | 200 ± 9 nM | 7 | 360 ± 16 nM | 2 |
